According to the supplement of paper PMC10307832:

How the values were obtained:
Test in all cases: relative viability (nuclei count vs DMSO), 5 days (fraction); higher = more cells survive
A549 = tested on: A549
In short: (§1)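 Relative viability is defined as nuclei in treated wells over nuclei in vehicle wells. Duplicate plates were run and medians reported. Lung cancer cell lines in 1536-well plates were dosed by pin tool one day after seeding, with one drug or with a fixed anchor-drug dose plus five library-drug doses (not always all listed) in √10 steps, and nuclei were counted after 5 days.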

HCC-366 = tested on: HCC-366
In short: as §1

HCC-44 = tested on: HCC-44
In short: as §1

LOU-NH91 = tested on: LOU-NH91
In short: as §1

NCI-H1437 = tested on: NCI-H1437
In short: as §1

NCI-H1648 = tested on: NCI-H1648
In short: as §1

NCI-H2085 = tested on: NCI-H2085
In short: as §1

NCI-H3122 = tested on: NCI-H3122
In short: as §1

SMILES | relative viability (A549; first compound 0.01 µM) | relative viability (A549; first compound 0.03162 µM) | relative viability (A549; first compound 0.1 µM) | relative viability (A549; first compound 0.3162 µM) | relative viability (A549; first compound 1 µM) | relative viability (HCC-366; first compound 0.01 µM) | relative viability (HCC-366; first compound 0.03162 µM) | relative viability (HCC-366; first compound 0.1 µM) | relative viability (HCC-366; first compound 0.3162 µM) | relative viability (HCC-366; first compound 1 µM) | relative viability (HCC-44; first compound 0.01 µM) | relative viability (HCC-44; first compound 0.03162 µM) | relative viability (HCC-44; first compound 0.1 µM) | relative viability (HCC-44; first compound 0.3162 µM) | relative viability (HCC-44; first compound 1 µM) | relative viability (LOU-NH91; first compound 0.01 µM) | relative viability (LOU-NH91; first compound 0.03162 µM) | relative viability (LOU-NH91; first compound 0.1 µM) | relative viability (LOU-NH91; first compound 0.3162 µM) | relative viability (LOU-NH91; first compound 1 µM) | relative viability (NCI-H1437; first compound 0.01 µM) | relative viability (NCI-H1437; first compound 0.03162 µM) | relative viability (NCI-H1437; first compound 0.1 µM) | relative viability (NCI-H1437; first compound 0.3162 µM) | relative viability (NCI-H1437; first compound 1 µM) | relative viability (NCI-H1648; first compound 0.03162 µM) | relative viability (NCI-H1648; first compound 0.1 µM) | relative viability (NCI-H1648; first compound 0.3162 µM) | relative viability (NCI-H1648; first compound 1 µM) | relative viability (NCI-H2085; first compound 0.01 µM) | relative viability (NCI-H2085; first compound 0.03162 µM) | relative viability (NCI-H2085; first compound 0.1 µM) | relative viability (NCI-H2085; first compound 0.3162 µM) | relative viability (NCI-H2085; first compound 1 µM) | relative viability (NCI-H3122; first compound 0.01 µM) | relative viability (NCI-H3122; first compound 0.03162 µM) | relative viability (NCI-H3122; first compound 0.1 µM) | relative viability (NCI-H3122; first compound 0.3162 µM) | relative viability (NCI-H3122; first compound 1 µM) | relative viability (NCI-H1648; first compound 0.01 µM)
O=c1cc(N2CCOCC2)oc2c(-c3cccc4c3sc3ccccc34)cccc12 + Nc1ncn([C@H]2C[C@H](O)[C@@H](CO)O2)c(=O)n1 [Decitabine] (partner 2 µM) | 0.26 | 0.242 | 0.189 | 0.246 | 0.288 | 0.331 | 0.365 | 0.413 | 0.348 | 0.296 | 0.962 | 0.993 | 0.97 | 0.96 | 0.986 | 0.774 | 0.794 | 0.83 | 0.827 | 0.784 | 0.587 | 0.562 | 0.638 | 0.549 | 0.625 | 0.594 | 0.496 | 0.466 | 0.458 | 0.591 | 0.519 | 0.526 | 0.614 | 0.502 | 0.405 | 0.436 | 0.564 | 0.452 | 0.388 | 
CCN(CC)CCCCNc1ncc2cc(-c3cc(OC)cc(OC)c3)c(NC(=O)NC(C)(C)C)nc2n1 + Nc1ncn([C@H]2C[C@H](O)[C@@H](CO)O2)c(=O)n1 [Decitabine] (partner 2 µM) | 0.27 | 0.27 | 0.312 | 0.212 | 0.288 | 0.316 | 0.378 | 0.368 | 0.41 | 0.319 | 0.944 | 0.915 | 1.02 | 0.949 | 0.979 | 0.799 | 0.783 | 0.875 | 0.801 | 0.804 | 0.599 | 0.541 | 0.592 | 0.58 | 0.578 | 0.565 | 0.499 | 0.417 | 0.383 | 0.559 | 0.603 | 0.564 | 0.533 | 0.549 | 0.493 | 0.472 | 0.418 | 0.448 | 0.42 | 0.407
